Read-outs that look alike come from different tables or passages of the source.
Biological target: T1, ERα (Homo sapiens, UniProt P03372)
T1 construct: degradation effects on ERα in various breast cancer cell lines; endogenous in cells; host or cells: MCF-7, T-47D, CAMA-1
T1 sequence (P03372 1-595): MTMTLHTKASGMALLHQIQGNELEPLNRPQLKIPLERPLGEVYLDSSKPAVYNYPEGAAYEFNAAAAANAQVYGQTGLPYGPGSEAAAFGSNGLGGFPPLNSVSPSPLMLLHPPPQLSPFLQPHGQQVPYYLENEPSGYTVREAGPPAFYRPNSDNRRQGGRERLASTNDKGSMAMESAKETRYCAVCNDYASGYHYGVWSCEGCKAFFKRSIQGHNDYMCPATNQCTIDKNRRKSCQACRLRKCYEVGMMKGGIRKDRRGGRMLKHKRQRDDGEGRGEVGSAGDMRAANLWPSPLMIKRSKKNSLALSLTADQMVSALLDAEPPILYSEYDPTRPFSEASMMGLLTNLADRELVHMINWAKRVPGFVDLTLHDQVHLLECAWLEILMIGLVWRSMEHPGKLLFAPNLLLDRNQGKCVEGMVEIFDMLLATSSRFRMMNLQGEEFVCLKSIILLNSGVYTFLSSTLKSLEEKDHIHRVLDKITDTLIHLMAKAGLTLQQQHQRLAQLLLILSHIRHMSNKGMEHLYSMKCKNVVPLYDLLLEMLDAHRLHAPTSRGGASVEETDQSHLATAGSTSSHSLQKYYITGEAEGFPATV
Test: ERα degradation assay (ICW) in MCF-7, T-47D and CAMA-1 cells
Format: cell-based
Details: 4 hours, read-out: IC50 (nM), degradation effect on ERα
Experimental: (3) ERα Degradation Assay in MCF-7, T-47D, and CAMA-1 Cells
• 1) The complete culture medium was aspirated from the culture flask, followed by the addition of an appropriate amount of trypsin for rinsing. The trypsin solution was then aspirated to remove residual serum. • 2) Subsequently, an appropriate amount of trypsin was added for a second rinse and aspirated. The culture flask was placed in an incubator for 2-3 minutes, then removed, and gently agitated to detach the cells. • 3) The cells were resuspended in fresh complete culture medium and counted using a cell counter. • 4) The cell suspension was prepared according to the required plating density. • 5) A volume of 30.0 μL of the cell suspension was added to each well of a 384-well plate. • 6) The experimental plate was placed in a centrifuge and centrifuged at 1000 rpm for 1 minute. • 7) The experimental plate was then incubated overnight in a cell incubator. • 8) According to the sample addition diagram of experimental plate (refer to 3.5.1), 20.0 μL of the diluted test sample was added to each well. […] The plate was incubated at 4° C. overnight. • 19) The primary antibody solution in the plate was discarded, and the plate was washed five times with PBS using a multidrop. • 20) A mixture of 25 μL of secondary antibody and DRAQ5 was added to each well, and incubated at room temperature for 1 hour. • 21) The plate was washed five times with PBS using a multidrop. • 22) The plate was washed with ddH2O twice, and patted dry. • 23) The plate was subsequently read using the Odyssey infrared imaging system. […]
The IC50 values were calculated using GraphPad Prism 7.0, a data analysis software.
This experiment evaluated the effect of compound of formula (I) on the expression of ERα protein in MCF-7, T-47D, and CAMA-1 cells. The expression levels of ERα protein were detected using the ICW assay after 4 hours of drug treatment.

FCCCN1CC[C@H](Nc2cnc(C3=C(CC(F)(F)F)CCCc4c3ccc3[nH]nc(F)c43)cn2)C1 [Compound of formula (I)]
DC50 (CAMA-1 cells): 1.25 nM
DC50 (MCF-7 cells): 0.235 nM
DC50 (T-47D cells): 0.78 nM

Source: US12410155B2, “Salt form and crystal form of tetrahydrocyclohepta indazole compound” (Zhejiang Yangli Pharmaceutical Technology Co., Ltd., priority 2021, dated 2025)
